Experimental data taken from article PMC7767178 (International Journal of Molecular Sciences, 2020).
“And” between values parts separate entries of the source, which are not always exact repeats. Equal values may be shown once. Read-outs that look alike come from different tables or passages of the source. Positions of bridges follow the written chain, without caps; N, C: chain ends. Residues, ends and D or L forms follow the SMILES beside them.

Legend:
A. veronii ACCC61732 [1] = assay: microbe, parasite or virus in culture; assay type: cell-based; settings: Aeromonas veronii, ACCC61732, read-out: MICa, MIC of the antibiotic used alone
From the text: The checkerboard microtiter assay was used to determine the combinations of peptides with different antibiotics (including quinolone, rifamycin, peptide antibiotics, aminoglycoside, tetracycline, and chloramphenicol). […] The fractional inhibitory concentration (FIC) was used to calculate the combination effects using the following formula: FIC index (FICI) = MIC(peptide in combination)/MIC(peptide alone) + MIC(antibiotic in combination)/MIC(antibiotic alone). FICI ≤ 0.5 means synergistic, 0.5 < FICI ≤ 1 means additive action, 1 < FICI ≤ 4 means indifference, and FICI > 4 means antagonism.

[2] = tested on: A. veronii ACCC61732 in biofilm; assay type: cell-based; settings: 2 h
Protocol: The mid-log phase A. veronii ACCC61732 cells (1 × 10^8 CFU/mL) were inoculated into in the 96-well plates and cultured for 24 h at 37 °C. The plates were washed twice with PBS. […] PBS was used as the negative control. The plates were treated with ultrasound for 5 min and the viable bacteria were counted on the TSA plates.

S. pullorum CVCC1789 = assay: microbe, parasite or virus in culture; assay type: cell-based
From the text: (§1) All experiments were repeated three times.

E. coli CVCC1515 = assay: microbe, parasite or virus in culture; assay type: cell-based
From the text: as §1

Escherichia coli CVCC195 = assay: microbe, parasite or virus in culture; assay type: cell-based
From the text: as §1

S. enteritidis CVCC3377 = assay: microbe, parasite or virus in culture; assay type: cell-based
From the text: as §1

A. veronii X-1-06909 = assay: microbe, parasite or virus in culture; assay type: cell-based
From the text: as §1

[3] = tested on: Candida albicans CMCC98001; assay: microbe, parasite or virus in culture; assay type: cell-based
From the text: as §1

[4] = tested on: Staphylococcus aureus ATCC43300; assay: microbe, parasite or virus in culture; assay type: cell-based; settings: Staphylococcus aureus ATCC43300, broth dilution, 37 °C, 16–18 h, three experiments
From the text: as §1

S. pullorum CVCC533 = assay: microbe, parasite or virus in culture; assay type: cell-based
From the text: as §1

S. pullorum CVCC1809 = assay: microbe, parasite or virus in culture; assay type: cell-based
From the text: as §1

E. coli CVCC25922 = assay: microbe, parasite or virus in culture; assay type: cell-based
From the text: as §1

A. veronii ACCC61732 [5] = assay: Post-antibiotic effect (PAE); assay type: cell-based; settings: for PAE: 2 h exposure, 1000-fold dilution, 37 °C, triplicate
Protocol: The samples were taken from flasks for counting each hour until bacterial cultures became turbid. The untreated bacteria severed as controls. The PAE was calculated using the following equation: PAE = T − C, where T is the time (h) required for the CFU in the test culture to increase by 10-fold from the count immediately after the drug removal and C is the corresponding time (h) for the control. The experiment was performed in triplicate.

A. veronii ACCC61732 [6] = assay: Time-killing curves; assay type: cell-based; settings: 2× MIC; 1 × 10^5 CFU/mL, colony counting, 0–24 h
Protocol: Time-killing curves were performed as previously described. […] The sample of 100 μL was taken from each flask at 0, 0.5, 1, 2, 4, 6, 8, 10, 20, and 24 h, respectively, and serially diluted for colony counting. PBS and CIP were used as the negative and positive control, respectively.

E. coli CVCCO157 = assay: MIC, microtiter broth dilution; assay type: cell-based; settings: 37 °C, 16–18 h, three experiments
From the text: as §1

A. veronii ACCC61732 [7] = assay: Resistance development, 30 serial passages; assay type: cell-based; settings: A. veronii ACCC61732, 30 passages (30 days)
Protocol: The development of bacterial resistance of peptides was performed by the MIC assays. […] GEN, CIP, and PMB were used as controls. […] The MIC values were measured as described above. The serial passaging was repeated for 30 days.

in vitro = settings: mouse, 25% mouse serum
A. veronii ACCC61732 [8] = assay: Inner membrane permeability, PI staining, flow cytometry; assay type: cell-based
Protocol: To analyze effects of peptides on the inner membrane, A. veronii ACCC61732 cells were cultured to mid-log phase at 37 °C in MHB medium, washed thrice with PBS, and resuspended in the PBS buffer to 1 × 10^8 CFU/mL. […] After fixation with PI, the samples were detected by a fluorescent inverted microscope and FACS Calibur Flow Cytometer (BD, San Jose, CA, USA), respectively. Cell Quest Pro software (BD, San Jose, CA, USA) was used for the data analysis.

A. veronii ATCC35624 = assay type: cell-based
[9] = Escherichia coli CVCC195, broth dilution, 37 °C, 16–18 h, three experiments, read-out: MIC

O=C(O)c1cn(C2CC2)c2cc(N3CCNCC3)c(F)cc2c1=O [CIP, ciprofloxacin, reference compound]
MIC (A. veronii ACCC61732 [1]): 0.125 µg/mL
bacteria in biofilm killed ([2]; 8× MIC, 37 °C, colony counting): 47.46%
bacteria in biofilm killed ([2]; 16× MIC, 37 °C, colony counting): 52.32%
MIC (S. pullorum CVCC1789; Salmonella enterica, PULLORUM): < 0.0625 µg/mL
MIC (S. pullorum CVCC1789; Salmonella enterica, S. pullorum CVCC1789, broth dilution, 37 °C, 16–18 h, three experiments, read-out: MIC): < 0.19 µM
MIC (E. coli CVCC1515; Escherichia coli, CVCC1515): < 0.0625 µg/mL
MIC (E. coli CVCC1515; Escherichia coli, E. coli CVCC1515, broth dilution, 37 °C, 16–18 h, three experiments, read-out: MIC): < 0.19 µM
MIC (Escherichia coli CVCC195; [9]): < 0.19 µM
MIC (Escherichia coli CVCC195; Escherichia coli, CVCC195): < 0.0625 µg/mL
MIC (S. enteritidis CVCC3377; Salmonella enterica, ENTERITIDIS): < 0.0625 µg/mL
MIC (S. enteritidis CVCC3377; Salmonella enterica, S. enteritidis CVCC3377, broth dilution, 37 °C, 16–18 h, three experiments, read-out: MIC): < 0.19 µM
MIC (A. veronii X-1-06909; Aeromonas veronii, X106909, A. veronii X-1-06909, broth dilution, 37 °C, 16–18 h, three experiments, read-out: MIC): 0.25 µg/mL and 0.75 µM
MIC ([3]; Candida albicans CMCC98001, broth dilution, 37 °C, 16–18 h, three experiments, read-out: MIC): > 386 µM
MIC ([3]; Candida albicans, CMCC98001): > 128 µg/mL
MIC ([4]; read-out: MIC): 0.25 µg/mL and 0.75 µM
MIC (S. pullorum CVCC533; Salmonella enterica, PULLORUM): < 0.0625 µg/mL
MIC (S. pullorum CVCC533; Salmonella enterica, S. pullorum CVCC533, broth dilution, 37 °C, 16–18 h, three experiments, read-out: MIC): < 0.19 µM
MIC (S. pullorum CVCC1809; Salmonella enterica, PULLORUM): < 0.0625 µg/mL
MIC (S. pullorum CVCC1809; Salmonella enterica, S. pullorum CVCC1809, broth dilution, 37 °C, 16–18 h, three experiments, read-out: MIC): < 0.19 µM
MIC (E. coli CVCC25922; Escherichia coli, CVCC25922): < 0.0625 µg/mL
MIC (E. coli CVCC25922; Escherichia coli, E. coli CVCC25922, broth dilution, 37 °C, 16–18 h, three experiments, read-out: MIC): < 0.19 µM
PAE (A. veronii ACCC61732 [5]; 1× MIC): 0.6 ± 0.01 h
PAE (A. veronii ACCC61732 [5]; 2× MIC): 0.63 ± 0.1 h
PAE (A. veronii ACCC61732 [5]; 4× MIC): 0.67 h and 0.67 ± 0.02 h
time to completely kill A. veronii ACCC61732 (A. veronii ACCC61732 [6]): started to regrow after 2 h
MIC (E. coli CVCCO157; Escherichia coli, read-out: MIC): < 0.0625 µg/mL and < 0.19 µM
increase of MIC after 30 serial passages (A. veronii ACCC61732 [7]): 15 fold

CC(C)[C@@H]1NC(=O)CNC(=O)[C@H](CC(N)=O)NC(=O)[C@H](CCCNC(=N)N)NC(=O)[C@H](Cc2ccc(O)cc2)NC(=O)[C@H](C(C)C)NC(=O)[C@@H](NC(=O)[C@@H](NC(=O)[C@H](CC(N)=O)NC(=O)[C@H](Cc2c[nH]c3ccccc23)NC(=O)[C@H](C)NC(=O)[C@H](Cc2ccccc2)NC(=O)CN)C(C)C)CSSC[C@@H](C(=O)N[C@@H](Cc2c[nH]cn2)C(=O)N[C@@H](CCCNC(=N)N)C(=O)N2CCC[C@H]2C(=O)N[C@@H](C)C(=O)N[C@@H](CC(N)=O)C(N)=O)NC(=O)[C@H](C(C)C)NC(=O)[C@H](CCCNC(=N)N)NC1=O [N6PNH2] (H-GFAWNVCVYRNGVRVCHRPAN-NH2; disulfide 7-16 (inferred))
bacteria in biofilm killed [2]; 8: 57.99%
bacteria in biofilm killed [2]; 16: 67.44%
remaining at 2 h (in vitro): 95.2%
remaining at 4.5 h (in vitro): 84.9%
remaining at 6 h (in vitro): 79.9%
Permeability (PI-positive cells) (A. veronii ACCC61732 [8]; 1× MIC, 0.5 h): 0%
Permeability (PI-positive cells) (A. veronii ACCC61732 [8]; 1× MIC, 2 h): 2.11%
Permeability (PI-positive cells) (A. veronii ACCC61732 [8]; 2× MIC, 0.5 h): 0.68%
Permeability (PI-positive cells) (A. veronii ACCC61732 [8]; 2× MIC, 2 h): 1.35%
Permeability (PI-positive cells) (A. veronii ACCC61732 [8]; 4× MIC, 0.5 h): 0%
Permeability (PI-positive cells) (A. veronii ACCC61732 [8]; 4× MIC, 2 h): 1.23%
MIC (S. pullorum CVCC1789; CVCC1789, read-out: MIC): 6.62 µM
MIC (S. pullorum CVCC1789; S. pullorum CVCC1789, broth dilution, 37 °C, 16–18 h, three experiments): 16 µg/mL
MIC (E. coli CVCC1515; CVCC1515, read-out: MIC): 1.66 µM
MIC (E. coli CVCC1515; E. coli CVCC1515, broth dilution, 37 °C, 16–18 h, three experiments): 4 µg/mL
MIC (Escherichia coli CVCC195; Escherichia coli CVCC195, broth dilution, 37 °C, 16–18 h, three experiments): 8 µg/mL
MIC (Escherichia coli CVCC195; [9]): 3.31 µM
MIC (S. enteritidis CVCC3377; CVCC3377, read-out: MIC): 0.83 µM
MIC (S. enteritidis CVCC3377; S. enteritidis CVCC3377, broth dilution, 37 °C, 16–18 h, three experiments): 2 µg/mL
MIC (A. veronii X-1-06909; A. veronii X-1-06909, broth dilution, 37 °C, 16–18 h, three experiments): 64 µg/mL
MIC (A. veronii X-1-06909; read-out: MIC): 26.49 µM
MIC ([3]; CMCC98001, read-out: MIC): >52.98 µM
MIC [4]: >64 µg/mL
MIC (S. pullorum CVCC533; CVCC533, read-out: MIC): 13.25 µM
MIC (S. pullorum CVCC533; S. pullorum CVCC533, broth dilution, 37 °C, 16–18 h, three experiments): 32 µg/mL
MIC (S. pullorum CVCC1809; S. pullorum CVCC1809, broth dilution, 37 °C, 16–18 h, three experiments): 8 µg/mL
MIC (S. pullorum CVCC1809; S. pullorum CVCC1809, broth dilution, 37 °C, 16–18 h, three experiments, read-out: MIC): 3.31 µM
MIC (E. coli CVCC25922; E. coli CVCC25922, broth dilution, 37 °C, 16–18 h, three experiments): 8 µg/mL
MIC (E. coli CVCC25922; E. coli CVCC25922, broth dilution, 37 °C, 16–18 h, three experiments, read-out: MIC): 3.31 µM
PAE (A. veronii ACCC61732 [5]; 1× MIC): 0.52 ± 0.01 h
PAEs, range over 1×–4× MIC (A. veronii ACCC61732 [5]; 1× to 4× MIC): 0.52 to 0.68 h
PAE (A. veronii ACCC61732 [5]; 2× MIC): 0.62 ± 0.01 h
PAE (A. veronii ACCC61732 [5]; 4× MIC): 0.68 h and 0.68 ± 0.01 h
time to completely kill A. veronii ACCC61732 (A. veronii ACCC61732 [6]): 2 h
MIC (A. veronii ATCC35624; A. veronii ATCC35624, broth dilution, 37 °C, 16–18 h, three experiments): 64 µg/mL
MIC (A. veronii ATCC35624; ATCC35624): 26.49 µM
MIC (E. coli CVCCO157): 8 µg/mL
MIC (E. coli CVCCO157; read-out: MIC): 3.31 µM
increase of MIC after 30 serial passages (A. veronii ACCC61732 [7]): three-fold
